Results reported in paper PMC9286277, “Enzymatic measurement of short-chain fatty acids and application in periodontal disease diagnosis” (PLoS ONE, 2022).

How the values were obtained:
Details in all cases: ATP, Mg2+; 0.1 M Tris-HCl pH 7.5; 37°C
[1] = molecular target: T1, AK (acetate kinase) (Escherichia coli, UniProt P0A6A3)
T1 construct: gene ackA
From the text: coupled ADP-hexokinase/G6PDH NADPH assay on AK (acetate kinase)

[2] = tested on: T2, PK (propionate kinase)
T2 construct: gene tdcD
From the text: coupled ADP-hexokinase/G6PDH NADPH assay on PK (propionate kinase)

[3] = molecular target: T3, His-tagged BK (butyrate kinase; ToBKIII) (Thermosediminibacter oceani, UniProt D9S2G7); assay: coupled ADP-hexokinase/G6PDH NADPH assay; type: biochemical
T3 construct: gene buk; entire gene (about 1,100 bp, about 360 residues) NdeI/HindIII in pET21a(+), E. coli BL21(DE3), Ni column; C-terminal vector His tag; sense primer encodes N-terminus MTFYGILA; antisense primer encodes C-terminus EKPKEYL before HindIII site (KL)
T3 sequence (D9S2G7 1-357): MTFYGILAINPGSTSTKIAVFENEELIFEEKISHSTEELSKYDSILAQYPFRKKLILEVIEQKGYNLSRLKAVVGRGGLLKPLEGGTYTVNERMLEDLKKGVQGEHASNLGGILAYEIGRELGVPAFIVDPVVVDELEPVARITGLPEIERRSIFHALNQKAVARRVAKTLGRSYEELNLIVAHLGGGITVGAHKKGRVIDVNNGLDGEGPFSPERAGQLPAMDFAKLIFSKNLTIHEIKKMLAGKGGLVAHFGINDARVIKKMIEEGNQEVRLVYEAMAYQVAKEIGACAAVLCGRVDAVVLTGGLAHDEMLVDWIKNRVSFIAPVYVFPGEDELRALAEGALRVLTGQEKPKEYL
From the text: coupled ADP-hexokinase/G6PDH NADPH assay on His-tagged BK (butyrate kinase; ToBKIII)

T1 sequence (P0A6A3 whole entry): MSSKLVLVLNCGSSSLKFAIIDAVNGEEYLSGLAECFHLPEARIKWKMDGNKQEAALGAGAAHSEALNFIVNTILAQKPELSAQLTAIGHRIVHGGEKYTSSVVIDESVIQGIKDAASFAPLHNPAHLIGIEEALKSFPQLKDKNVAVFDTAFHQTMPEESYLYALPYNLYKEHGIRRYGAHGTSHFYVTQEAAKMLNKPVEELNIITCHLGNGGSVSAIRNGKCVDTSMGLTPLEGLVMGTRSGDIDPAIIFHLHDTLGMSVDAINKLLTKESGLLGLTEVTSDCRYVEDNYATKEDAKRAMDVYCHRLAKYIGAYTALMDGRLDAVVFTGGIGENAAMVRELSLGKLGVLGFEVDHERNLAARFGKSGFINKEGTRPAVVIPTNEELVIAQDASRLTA

| SMILES | AK / Km [1] [mmol] | PK / Km [2] [mmol] | BK / Km [3] [mmol] |
| --- | --- | --- | --- |
| CC(=O)O [C2, acetic acid] | 9.1 | 13.2 |  |
| CCC(=O)O [C3, propionic acid] |  | 1.8 | 5.1 |
| CCCC(=O)O [C4, butyric acid] |  | 280 | 2.2 |
| CCCCC(=O)O [C5, valeric acid] |  |  | 3.3 |
| CCCCCC(=O)O [C6, caproic acid] |  |  | 8.7 |
| CC(C)C(=O)O [IC4, isobutyric acid] |  |  | 3.2 |
| CC(C)CC(=O)O [IC5, isovaleric acid] |  |  | 2.1 |
